Results as given in the supplement of paper PMC10307832.

Tests used:
Test in all cases: relative viability (nuclei count vs DMSO), 5 days (fraction); higher = more cells survive
Ponatinib + Trametinib = compound: Cc1ccc(C(=O)Nc2ccc(CN3CCN(C)CC3)c(C(F)(F)F)c2)cc1C#Cc1cnc2cccnn12 [Ponatinib] + CC(=O)Nc1cccc(-n2c(=O)n(C3CC3)c(=O)c3c(Nc4ccc(I)cc4F)n(C)c(=O)c(C)c32)c1 [Trametinib] (partner 0.02 µM)
How it was run: (§1)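 A single step with final 0.05% Triton X-100, 1% formaldehyde and 1 ug/ml Hoechst fixed the cells and stained nuclei 5 days after treatment. Lung cancer cell lines in 1536-well plates had been treated by pin tool the day after seeding with one drug alone or a fixed anchor-drug dose plus five library-drug doses (not always all listed) in √10 steps, and nuclei were counted on 4× images. Relative viability is the ratio of nuclei in treated wells to nuclei in vehicle wells, taken as the median of duplicate plates.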

Pazopanib + Vorinostat = compound: Cc1ccc(Nc2nccc(N(C)c3ccc4c(C)n(C)nc4c3)n2)cc1S(N)(=O)=O [Pazopanib] + O=C(CCCCCCC(=O)Nc1ccccc1)NO [Vorinostat] (partner 1 µM)
How it was run: as §1

Ponatinib + Phenformin = compound: Cc1ccc(C(=O)Nc2ccc(CN3CCN(C)CC3)c(C(F)(F)F)c2)cc1C#Cc1cnc2cccnn12 [Ponatinib] + N=C(N)NC(=N)NCCc1ccccc1 [Phenformin] (partner 250 µM)
How it was run: as §1

Pazopanib + Bortezomib = compound: Cc1ccc(Nc2nccc(N(C)c3ccc4c(C)n(C)nc4c3)n2)cc1S(N)(=O)=O [Pazopanib] + CC(C)C[C@H](NC(=O)[C@H](Cc1ccccc1)NC(=O)c1cnccn1)B(O)O [Bortezomib] (partner 0.002 µM)
How it was run: as §1

Cell Line	relative viability (Ponatinib + Trametinib; first compound 0.002 µM)	relative viability (Ponatinib + Trametinib; first compound 0.006325 µM)	relative viability (Ponatinib + Trametinib; first compound 0.06325 µM)	relative viability (Ponatinib + Trametinib; first compound 0.2 µM)	relative viability (Pazopanib + Vorinostat; first compound 0.01 µM)	relative viability (Pazopanib + Vorinostat; first compound 0.03162 µM)	relative viability (Pazopanib + Vorinostat; first compound 0.1 µM)	relative viability (Pazopanib + Vorinostat; first compound 0.3162 µM)	relative viability (Pazopanib + Vorinostat; first compound 1 µM)	relative viability (Ponatinib + Phenformin; first compound 0.002 µM)	relative viability (Ponatinib + Phenformin; first compound 0.006325 µM)	relative viability (Ponatinib + Phenformin; first compound 0.06325 µM)	relative viability (Ponatinib + Phenformin; first compound 0.2 µM)	relative viability (Pazopanib + Bortezomib; first compound 0.01 µM)	relative viability (Pazopanib + Bortezomib; first compound 0.03162 µM)	relative viability (Pazopanib + Bortezomib; first compound 0.1 µM)	relative viability (Pazopanib + Bortezomib; first compound 0.3162 µM)	relative viability (Pazopanib + Bortezomib; first compound 1 µM)
HCC-827	0.526	0.558	0.558	0.459	0.895	0.839	0.843	0.922	0.785	0.411	0.429	0.416	0.348	0.963	1.06	1.06	1.05	1.03
HOP-62	0.417	0.403	0.374	0.338	0.494	0.584	0.474	0.656	0.496	0.602	0.635	0.633	0.624	0.642	0.724		0.935	0.923
IA-LM						0.977	1.1	0.964	0.945					0.889	1.05	0.77	0.797	0.597
LC-2-ad	0.809	0.822	0.62	0.533	0.697	0.719	0.732	0.771	0.732	0.415	0.542	0.498	0.462	0.977	1.08	1.02	0.956	1.12
LCLC-97TM1	0.186	0.208	0.168	0.162		0.877	0.58	0.797	0.736	0.489	0.432	0.467	0.411	0.506	0.693	0.482	0.737	0.592
LCLC-103H	0.678	0.718	0.673	0.579	0.692	0.804	0.753	0.823	0.842	0.275	0.347	0.312	0.295	0.942	0.869	1.11	1.04	1.24
LK-2	0.787	0.666	0.746	0.587	0.201	0.26	0.252	0.236	0.235		0.52	0.239	0.21					
LOU-NH91	0.803	0.807	0.886	0.764	0.873	0.964	0.917	1.02	0.942	0.683	0.73	0.766	0.676	0.484	0.481	0.496	0.475	0.506
LU99A	0.476	0.554	0.342	0.305		0.493	0.459	0.545	0.554	0.823	0.873	0.744	0.859	0.913	1.18	1.18	1.25	1.25
LXF-289	0.651	0.649	0.633	0.641	0.767	0.798	0.779	0.732	0.812	0.513	0.545	0.525	0.445	0.998	1.02	0.993	0.91	0.956
NCI-H358	0.162	0.147	0.12	0.103	0.752	0.656	0.782	0.728	0.694	0.375	0.46	0.4	0.299					
NCI-H522	0.739	0.876	0.594	0.629	0.603	0.874	0.851	0.922	1.02	0.697	0.657	0.653	0.56					
NCI-H1299														0.998	0.987	1.05	1.03	1.02
NCI-H1395	0.905	1.01	0.976	0.78	0.586	0.768	0.673	0.734	1.07	0.417	0.432	0.386	0.377					
NCI-H1563										0.587	0.649	0.655	0.525	0.788	0.873	0.947	0.913	0.985
NCI-H1623										0.567	0.606	0.611	0.627					
NCI-H1648	0.478	0.361	0.432	0.346			0.337	0.535	0.376									
NCI-H1703														0.26	0.262	0.233	0.267	0.214
NCI-H1792	0.312	0.546	0.54	0.403						0.268	0.22	0.354	0.205		0.958	0.916	0.949	0.935
NCI-H1793	0.395	0.511	0.344	0.347		0.753	0.637	0.811	1.11	0.33	0.324	0.397	0.326					
NCI-H1944	0.426	0.465	0.49	0.409	0.487	0.557	0.583	0.604	0.648	0.204	0.202	0.209	0.186					
NCI-H2170	0.865	0.962	0.899	0.867	0.624	0.848	0.877	0.796	0.829	0.391	0.365	0.432	0.419					
NCI-H2342	0.741	0.802	0.936	0.83	0.671	0.789	0.704	0.762	0.687	0.5	0.488	0.538	0.595					
SK-MES-1	0.629	0.693	0.511	0.454	1.03	0.989	1.27	1.09	1.07	0.676	0.65	0.716	0.548					
SW 900	1	0.967	0.762	0.873	0.465	0.33		0.545	0.53	0.491	0.496	0.682	0.416					
